Measured values: patent US12227509B2, “Dihydropyrazolopyrazinone derivative having MGAT2 inhibitory activity” (Shionogi & Co., Ltd., priority 2019, dated 2025)

What was measured:
[1] = target: CYP1A2 (Homo sapiens (Human), UniProt P05177); experiment: CYP inhibition test, CYP1A2; format: in vitro ADME; settings: pooled human liver microsomes; 7-ethoxyresorufin O-deethylation; given as 'five kinds'
Description: (§1) Using commercially available pooled human hepatic microsome, and employing, as markers, 7-ethoxyresorufin O-deethylation (CYP1A2), tolbutamide methyl-hydroxylation (CYP2C9), mephenytoin 4'-hydroxylation (CYP2C19), dextromethorphan 0-demethylation (CYP2D6), and terfenadine hydroxylation (CYP3A4) as typical substrate metabolism reactions of human main five CYP enzyme forms (CYP1A2, 2C9, 2C19, 2D6, 3A4), an inhibitory degree of each metabolite production amount by the compound of the present invention was assessed. The reaction conditions are as follows: substrate, 0.5 μmol/L ethoxyresorufin (CYP1A2), 100 μmol/L tolbutamide (CYP2C9), 50 μmol/L S-mephenitoin (CYP2C19), 5 μmol/L dextromethorphan (CYP2D6), 1 μmol/L terfenedine (CYP3A4); reaction time, 15 minutes; reaction temperature, 37° C.; enzyme, pooled human liver microsomes 0.2 mg protein/mL; concentrations of the compound of the present invention, 1, 5, 10, 20 μmol/L (four points). As a reaction solution, each five kinds of substrates, human liver microsomes, or compound of the present invention in 50 mmol/L Hepes buffer were added to a 96-well plate at the composition as described above, and NADPH, as a cofactor was added to initiate metabolism reactions. After the incubation at 37° C. for 15 minutes, a methanol/acetonitrile=1/[…]) solution was added to stop the reaction. After the centrifugation at 3000 rpm for 15 minutes, resorufin (CYP1A2 metabolite) in the supernatant was quantified by a fluorescent multilabel counter or LC/MS/MS, and tolbutamide hydroxide (CYP2C9 metabolite), mephenytoin 4' hydroxide (CYP2C19 metabolite), dextrorphan (CYP2D6 metabolite), and terfenadine alcohol (CYP3A4 metabolite) were quantified by LC/MS/MS. Addition of only DMSO being a solvent dissolving a drug to a reaction system was adopted as a control (100%). Remaining activity (%) was calculated. IC50 was calculated by reverse presumption by a logistic model using the concentration and an inhibition rate.

[2] = target: CYP2D6 (Homo sapiens (Human), UniProt P10635); experiment: CYP inhibition test, CYP2D6; format: in vitro ADME; settings: pooled human liver microsomes; dextromethorphan O-demethylation; given as 'five kinds'
CYP2D6, sequence (P10635 whole entry): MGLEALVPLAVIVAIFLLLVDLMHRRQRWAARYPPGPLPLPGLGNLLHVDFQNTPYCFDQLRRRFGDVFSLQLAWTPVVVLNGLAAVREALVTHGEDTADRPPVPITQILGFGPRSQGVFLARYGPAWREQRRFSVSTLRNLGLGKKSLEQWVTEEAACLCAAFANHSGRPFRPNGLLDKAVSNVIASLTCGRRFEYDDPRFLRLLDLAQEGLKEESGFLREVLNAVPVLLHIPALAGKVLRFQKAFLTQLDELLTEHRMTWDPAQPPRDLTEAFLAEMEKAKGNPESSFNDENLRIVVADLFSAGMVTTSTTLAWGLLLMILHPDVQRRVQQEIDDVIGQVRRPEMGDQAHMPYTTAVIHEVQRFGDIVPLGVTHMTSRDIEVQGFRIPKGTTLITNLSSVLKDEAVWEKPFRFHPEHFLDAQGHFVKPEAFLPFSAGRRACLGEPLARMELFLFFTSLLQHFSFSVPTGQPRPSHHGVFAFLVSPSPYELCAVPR
Description: as §1

[3] = target: T1, CYP3A4 (Homo sapiens (Human), UniProt P08684); experiment: CYP inhibition test, CYP3A4; format: in vitro ADME; settings: pooled human liver microsomes; terfenadine hydroxylation; given as 'five kinds'
T1 sequence (P08684 whole entry): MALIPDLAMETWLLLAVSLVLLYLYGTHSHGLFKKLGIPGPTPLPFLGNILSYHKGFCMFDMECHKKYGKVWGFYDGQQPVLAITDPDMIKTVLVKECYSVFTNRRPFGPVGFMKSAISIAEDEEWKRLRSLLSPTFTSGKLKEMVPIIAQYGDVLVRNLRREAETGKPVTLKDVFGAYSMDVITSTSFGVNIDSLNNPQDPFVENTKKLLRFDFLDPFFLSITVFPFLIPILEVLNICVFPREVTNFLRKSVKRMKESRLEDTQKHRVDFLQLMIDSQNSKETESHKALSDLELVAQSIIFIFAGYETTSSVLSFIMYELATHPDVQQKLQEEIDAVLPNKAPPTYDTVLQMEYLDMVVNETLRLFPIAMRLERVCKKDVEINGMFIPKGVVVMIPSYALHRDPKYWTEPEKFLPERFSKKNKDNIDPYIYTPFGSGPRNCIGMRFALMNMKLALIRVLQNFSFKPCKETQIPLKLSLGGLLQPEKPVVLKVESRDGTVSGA
Description: as §1

[4] = BA test (oral absorption); format: in vivo; settings: plasma; mice or SD rats; from AUCs of oral and intravenous administration
Method: Materials and methods for experiments to evaluate oral absorption
(1) Animals: the mice or SD rats were used.
(2) Breeding conditions: the mice or SD rats were allowed to freely take solid food and sterilized tap water.
(3) Setting of dosage and grouping: Oral administration and intravenous administration were performed with a predetermined dosage. Grouping was set as below. (dosage changed per compound)
Oral administration: 1 to 30 mg/kg (n=2 to 3)
Intravenous administration: 0.5 to 10 mg/kg (n=2 to 3)
(4) Preparation of administration solution: Oral administration was performed in the form of a suspension or a solution. Intravenous administration was performed after solubilization.
(5) Routes of administration: Oral administration was performed mandatory into the stomach by oral sonde. Intravenous administration was performed from caudal vein or femoral vein by syringes with needle.
(6) Evaluation items: blood was collected over time, and the plasma concentration of the compound of the present invention was measured by LC/MS/MS.
(7) Statistical analysis: regarding the transition of the plasma concentration of the compound of the present invention, the area under the plasma concentration-time curve (AUC) was calculated by non-linear least squares program WinNonlin (registered trademark), and the bioavailability (BA) of the compound of the present invention was calculated from the AUCs of the oral administration group and intravenous administration group.

[5] = target: T1, CYP3A4; experiment: CYP3A4 (MDZ) MBI test; format: in vitro ADME; settings: pooled human liver microsomes; midazolam 1-hydroxylation; preincubation 0 vs 30 min
Method: CYP3A4 (MDZ) MBI test is a test of investigating mechanism based inhibition (MBI) potential on CYP3A4 by the enhancement of inhibitory degree of a metabolic reaction caused by the compound of the present invention. CYP3A4 inhibition was evaluated using pooled human liver microsomes by 1-hydroxylation reaction of midazolam (MDZ) as a marker reaction.
The reaction conditions are as follows: substrate, 10 μmol/L MDZ; pre-reaction time, 0 or 30 minutes; substrate reaction time, 2 minutes; reaction temperature, 37° C.; protein content of pooled human liver microsomes, at pre-reaction time 0.5 mg/mL, at reaction time 0.05 mg/mL (at 10-fold dilution); concentrations of the compound of the present invention, at pre-reaction time 1, 5, 10, 20 μmol/L (four points).
Pooled human liver microsomes and a solution of the compound of the present invention in K-Pi buffer (pH 7.4) as a pre-reaction solution were added to a 96-well plate at the composition of the pre-reaction. A part of pre-reaction solution was transferred to another 96-well plate, and 1/10 diluted by K-Pi buffer containing a substrate. NADPH as a co-factor was added to initiate a reaction as a marker reaction (without pre-reaction). After a predetermined time of a reaction, methanol/acetonitrile=1/1 (V/V) solution was added to stop the reaction. In addition, NADPH was added to a remaining pre-reaction solution to initiate a pre-reaction (with pre-reaction). After a predetermined time of a pre-reaction, a part was transferred to another plate, and 1/10 diluted by K-Pi buffer containing a substrate to initiate a reaction as a marker reaction. After a predetermined time of a reaction, methanol/acetonitrile=1/1 (V/V) solution was added in order to stop the reaction. The plate on which each index reaction had been performed was centrifuged at 3000 rpm for 15 minutes, and thereafter 1-hydroxylated midazolam in the supernatant was quantified by LC/MS/MS.
The sample adding DMSO as a solvent to a reaction system instead of a solution dissolving the compound of the present invention was adopted as a control (100%). Remaining activity (%) was calculated at each concentration of the compound of the present invention compared to a control, and IC value was calculated by reverse-presumption by a logistic model using a concentration and an inhibition rate. IC at Preincubation 0 min/IC at Preincubation 30 min was defined as a value of Shifted IC, and a case that Shifted IC was 1.5 or more was regarded as Positive, and a case that Shifted IC was 1.0 or less was regarded as Negative.

[6] = target: CYP2C9 (Homo sapiens (Human), UniProt P11712); experiment: CYP inhibition test, CYP2C9; format: in vitro ADME; settings: pooled human liver microsomes; tolbutamide methyl-hydroxylation; given as 'five kinds'
CYP2C9, sequence (P11712 whole entry): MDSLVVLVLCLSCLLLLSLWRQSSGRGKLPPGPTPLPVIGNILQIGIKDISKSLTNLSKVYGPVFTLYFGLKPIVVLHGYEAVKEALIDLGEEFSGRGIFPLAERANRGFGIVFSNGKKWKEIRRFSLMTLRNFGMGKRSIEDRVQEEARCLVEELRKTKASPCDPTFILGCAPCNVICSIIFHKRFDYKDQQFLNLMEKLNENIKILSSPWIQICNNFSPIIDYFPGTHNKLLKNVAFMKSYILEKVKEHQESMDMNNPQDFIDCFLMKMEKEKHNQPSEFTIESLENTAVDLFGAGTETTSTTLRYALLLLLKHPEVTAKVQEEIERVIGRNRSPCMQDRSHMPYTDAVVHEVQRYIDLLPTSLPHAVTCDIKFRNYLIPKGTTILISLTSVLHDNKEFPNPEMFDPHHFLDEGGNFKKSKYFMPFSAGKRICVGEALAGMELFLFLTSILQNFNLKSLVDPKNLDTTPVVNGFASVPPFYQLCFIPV
Description: as §1

[7] = target: CYP2C19 (Homo sapiens (Human), UniProt P33261); experiment: CYP inhibition test, CYP2C19; format: in vitro ADME; settings: pooled human liver microsomes; mephenytoin 4′-hydroxylation; given as 'five kinds'
CYP2C19, sequence (P33261 whole entry): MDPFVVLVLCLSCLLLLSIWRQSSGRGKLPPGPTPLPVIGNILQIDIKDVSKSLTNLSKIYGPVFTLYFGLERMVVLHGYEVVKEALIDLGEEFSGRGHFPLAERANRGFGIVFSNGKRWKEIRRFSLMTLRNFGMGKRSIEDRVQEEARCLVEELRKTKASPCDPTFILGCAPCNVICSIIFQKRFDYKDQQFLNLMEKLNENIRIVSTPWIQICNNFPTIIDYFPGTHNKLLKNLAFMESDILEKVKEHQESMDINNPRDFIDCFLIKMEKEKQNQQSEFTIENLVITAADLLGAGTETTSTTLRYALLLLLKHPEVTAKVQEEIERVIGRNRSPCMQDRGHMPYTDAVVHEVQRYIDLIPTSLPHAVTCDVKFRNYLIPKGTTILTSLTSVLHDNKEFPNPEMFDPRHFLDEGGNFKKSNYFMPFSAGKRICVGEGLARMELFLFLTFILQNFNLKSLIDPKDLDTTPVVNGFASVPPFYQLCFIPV
Description: as §1

CYP1A2, sequence (P05177 whole entry): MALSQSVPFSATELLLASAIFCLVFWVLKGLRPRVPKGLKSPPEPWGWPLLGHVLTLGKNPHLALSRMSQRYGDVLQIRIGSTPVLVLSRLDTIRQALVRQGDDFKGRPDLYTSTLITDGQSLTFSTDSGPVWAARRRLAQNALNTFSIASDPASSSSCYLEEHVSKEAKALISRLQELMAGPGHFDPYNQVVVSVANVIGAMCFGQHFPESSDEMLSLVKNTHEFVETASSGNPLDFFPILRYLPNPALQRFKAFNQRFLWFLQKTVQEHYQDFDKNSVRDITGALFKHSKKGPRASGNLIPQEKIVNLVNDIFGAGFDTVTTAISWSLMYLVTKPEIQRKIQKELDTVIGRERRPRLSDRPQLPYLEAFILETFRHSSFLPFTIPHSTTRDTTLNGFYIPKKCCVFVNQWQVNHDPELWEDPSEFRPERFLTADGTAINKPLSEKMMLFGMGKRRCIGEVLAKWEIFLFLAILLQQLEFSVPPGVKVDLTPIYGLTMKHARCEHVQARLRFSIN

IC50 [1] [µM] | IC50 [2] [µM] | IC50 [3] [µM] | bioavailability [4] [%] | IC50 [6] [µM] | IC50 [7] [µM] | Structure (SMILES) | CYP3A4 (MDZ) MBI (Shifted IC judgement) [5]
> 20 | > 20 | > 20 | 55.1 | > 20 | > 20 | Cc1ccc(-c2nn3c(c2NC(=O)CS(C)(=O)=O)C(=O)N[C@@]2(CCc4cc(OCC(F)(F)F)ccc42)C3)nc1 [Compound I-6] | Negative (a case that Shifted IC was 1.0 or less was regarded as Negative)
> 20 | > 20 | > 20 | – | > 20 | > 20 | N#Cc1ccc(-c2nn3c(c2NC(=O)CC(F)(F)F)C(=O)N[C@@]2(CCc4cc(OCC(F)(F)F)ccc42)C3)nc1 [Compound I-14] | Negative (a case that Shifted IC was 1.0 or less was regarded as Negative)
> 20 | > 20 | > 20 | 63.4 | > 20 | > 20 | Cc1ccc(-c2nn3c(c2NC(=O)CS(C)(=O)=O)C(=O)N[C@@]2(CCc4cc(OCC(F)(F)F)ccc42)C3)cc1 [Compound I-20] | Negative (a case that Shifted IC was 1.0 or less was regarded as Negative)
> 20 | > 20 | > 20 | 53.1 | > 20 | > 20 | CS(=O)(=O)CC(=O)Nc1c(CCC2CC2)nn2c1C(=O)N[C@@]1(CCc3cc(OCC(F)(F)F)ccc31)C2 [Compound I-46] | Negative (a case that Shifted IC was 1.0 or less was regarded as Negative)
> 20 | > 20 | > 20 | 88.2 | > 20 | > 20 | CS(=O)(=O)CC(=O)Nc1c(CCC(F)(F)F)nn2c1C(=O)N[C@@]1(CCc3cc(OCC(F)(F)F)ccc31)C2 [Compound I-58] | Negative (a case that Shifted IC was 1.0 or less was regarded as Negative)
